Experiment in all cases: cAMP functional assay (HTRF) in HEK293 cells in presence of 0.1% casein
Type in all cases: cell-based
(Time-resolved FRET reads energy transfer from a long-lived donor to a nearby acceptor.)

Assay [1] concerns the target T1, human GLP-1 receptor (GLP-1R) (Homo sapiens, UniProt P43220).
T1 construct: expressed in transfected cells; host or cells: HEK293
The conditions noted are these: HEK293 cells expressing human GLP-1R, geometric mean, read-out: hGLP1R cAMP Rel EC50 nM (SEM, n). On the procedure: (§1) Each receptor over-expressing cell line (20 μl) is treated with the test peptide in DMEM (Gibco Cat #31053) supplemented with 0.1% Casein (Sigma Cat #C4765), 250 μM IBMX, 1× GlutaMAX™ (Gibco Cat #35050), and 20 mM HEPES (HyClone Cat #SH30237.01) in a 20 μl assay volume. After incubating for 60 minutes at room temperature, the resulting increase in intracellular CAMP is quantitatively determined using the CisBio CAMP Dynamic 2 HTRF Assay Kit (62AM4PEJ). The Lysis buffer containing cAMP-d2 conjugate (20 μl) and the antibody anti-cAMP-Eu3+-Cryptate (20 μl) are then added to determine the cAMP level. After incubating 60 minutes at room temperature, HTRF signal is detected with an Envision 2104 plate reader (PerkinElmer). Fluorescent emission at 620 nm and at 665 nm is measured and the ratio between 620 nm and at 665 nm is calculated and then are converted to nM cAMP per well using a cAMP standard curve. Dose response curves of compounds are plotted as the percentage of stimulation normalized to minimum (buffer only) and maximum (maximum concentration of each control ligand) values and analyzed using a four parameter non-linear regression fit with a variable slope (Genedata Screener 13). EC50 is the concentration of compound causing half-maximal simulation in a dose response curve. A relative EC50 value is derived by non-linear regression analysis using the percent maximal response vs, the concentration of peptide added, fitted to a four-parameter logistic equation.
(§2) Intracellular cAMP levels are determined by extrapolation using a standard curve. Dose response curves of compounds are plotted as the percentage of stimulation normalized to minimum (buffer only) and maximum (maximum concentration of each control ligand) values and analyzed using a four-parameter non-linear regression fit with a variable slope (Genedata Screener 13). EC50 is the concentration of compound causing half-maximal simulation in a dose response curve. Each relative EC50 value for the geometric mean calculation is determined from a curve fitting.
(§3) Concentration response curves of compounds are plotted as the percentage of stimulation normalized to minimum (buffer only) and maximum (maximum concentration of each control ligand) values and analyzed using a four-parameter non-linear regression fit with a variable slope (Genedata Screener 13). EC50 is the concentration of compound causing half-maximal simulation in a dose response curve. […] The standard error of the mean is reported:
(§4) [formula] • The log transform accounts for the EC50 values falling on a multiplicative, rather than an arithmetic scale.
(§5) For illustration, as shown by Example 1, the peptide is tested in 8 runs of the hGIPR CAMP assay. […] Accordingly, each Example will use the geometric mean of those values to normalize the Example assay runs.

The target in assay [2] is T2, human glucagon receptor (GcgR) (Homo sapiens, UniProt P47871).
T2 construct: expressed in transfected cells; host or cells: HEK293
T2 sequence (P47871 26-477): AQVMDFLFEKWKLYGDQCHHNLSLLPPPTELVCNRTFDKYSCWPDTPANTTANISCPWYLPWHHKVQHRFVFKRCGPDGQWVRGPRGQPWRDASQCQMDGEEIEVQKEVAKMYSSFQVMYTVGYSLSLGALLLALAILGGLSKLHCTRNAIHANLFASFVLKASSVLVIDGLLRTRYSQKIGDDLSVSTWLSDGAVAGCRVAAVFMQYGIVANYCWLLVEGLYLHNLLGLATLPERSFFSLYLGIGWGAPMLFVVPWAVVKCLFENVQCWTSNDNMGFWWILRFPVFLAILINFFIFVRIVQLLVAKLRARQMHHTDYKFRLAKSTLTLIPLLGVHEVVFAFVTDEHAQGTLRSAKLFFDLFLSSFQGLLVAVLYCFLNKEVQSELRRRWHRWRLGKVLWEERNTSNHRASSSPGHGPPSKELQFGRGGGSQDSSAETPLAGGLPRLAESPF
The conditions noted are these: HEK293 cells expressing human GcgR, geometric mean, read-out: hGcgR cAMP Rel EC50 nM (SEM, n). As to the method:
as §1, §2, §3, §4, §5

For assay [3], the target named is T3, human glucose-dependent insulinotropic peptide receptor (GIPR) (Homo sapiens, UniProt P48546).
T3 construct: expressed in transfected cells; host or cells: HEK293
T3 sequence (P48546 22-466): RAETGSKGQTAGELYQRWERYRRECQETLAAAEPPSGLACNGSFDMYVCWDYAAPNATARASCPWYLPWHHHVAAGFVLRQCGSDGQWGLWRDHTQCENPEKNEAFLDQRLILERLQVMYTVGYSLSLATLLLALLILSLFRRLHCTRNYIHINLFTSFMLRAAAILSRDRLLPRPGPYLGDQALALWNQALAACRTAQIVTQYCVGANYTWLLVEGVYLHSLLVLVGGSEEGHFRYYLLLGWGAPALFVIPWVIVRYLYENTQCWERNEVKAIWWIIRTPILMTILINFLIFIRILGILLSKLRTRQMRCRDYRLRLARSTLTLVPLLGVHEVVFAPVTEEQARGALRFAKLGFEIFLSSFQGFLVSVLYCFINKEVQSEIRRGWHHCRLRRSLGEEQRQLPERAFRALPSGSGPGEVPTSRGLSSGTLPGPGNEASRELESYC
The following applies: HEK293 cells expressing human GIPR, geometric mean, read-out: hGIPR cAMP Rel EC50 nM (SEM, n). As to the method: as §1, §2, §3, §4, §5

For orientation: EC50 means the concentration giving half of the maximal effect.

T1 sequence (P43220 24-463): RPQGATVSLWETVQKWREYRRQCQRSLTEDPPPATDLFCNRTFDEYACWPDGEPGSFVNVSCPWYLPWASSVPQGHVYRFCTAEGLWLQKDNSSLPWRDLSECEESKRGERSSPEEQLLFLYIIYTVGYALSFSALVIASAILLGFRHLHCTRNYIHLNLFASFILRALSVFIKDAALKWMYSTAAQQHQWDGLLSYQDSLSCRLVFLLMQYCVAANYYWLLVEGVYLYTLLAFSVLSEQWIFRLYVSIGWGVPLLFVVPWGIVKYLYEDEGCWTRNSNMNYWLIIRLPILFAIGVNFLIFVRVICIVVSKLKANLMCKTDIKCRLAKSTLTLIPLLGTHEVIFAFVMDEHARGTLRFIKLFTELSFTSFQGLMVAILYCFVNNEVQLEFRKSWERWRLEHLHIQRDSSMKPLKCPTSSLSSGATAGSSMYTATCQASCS

Regarding `CC[C@H](C)[C@H](NC(=O)[C@H](CO)NC(=O)[C@H](Cc1ccc(O)cc1)NC(=O)[C@H](CC(=O)O)NC(=O)[C@H](CO)NC(=O)[C@@H](NC(=O)[C@H](Cc1ccccc1)NC(=O)[C@@H](NC(=O)CNC(=O)[C@H](CCC(=O)O)NC(=O)[C@@H](C)NC(=O)[C@@H](N)Cc1ccc(O)cc1)[C@@H](C)O)[C@@H](C)CC)C(=O)N[C@@H](CC(C)C)C(=O)N[C@@H](CC(C)C)C(=O)N[C@@H](CC(=O)O)C(=O)N[C@@H](CCCCN)C(=O)N[C@@H](CCCCNC(=O)COCCOCCNC(=O)COCCOCCNC(=O)CC[C@H](NC(=O)CCCCCCCCCCCCCCCCCCC(=O)O)C(=O)O)C(=O)N[C@@H](C)C(=O)N[C@@H](CCC(N)=O)C(=O)NC(C)(C)C(=O)N[C@@H](CC(=O)O)C(=O)N[C@@H](Cc1ccccc1)C(=O)N[C@H](C(=O)N[C@@H](CC(N)=O)C(=O)N[C@@H](Cc1c[nH]c2ccccc12)C(=O)N[C@@H](CC(C)C)C(=O)N[C@@H](CC(C)C)C(=O)N[C@@H](C)C(=O)N[C@@H](CCC(N)=O)C(=O)NCC(=O)N1CCC[C@H]1C(=O)N[C@@H](CO)C(=O)N[C@@H](CO)C(=O)NCC(=O)N[C@@H](C)C(=O)N1CCC[C@H]1C(=O)N1CCC[C@H]1C(=O)N1CCC[C@H]1C(=O)N[C@@H](CO)C(N)=O)C(C)C` [Example 1], the EC50 is greater than 5000 nM in assay [1], 575 nM in assay [2] and 0.0476 nM in assay [3].
Regarding `CC[C@H](C)[C@H](NC(=O)[C@H](CO)NC(=O)[C@H](Cc1ccc(O)cc1)NC(=O)[C@H](CC(=O)O)NC(=O)[C@H](CO)NC(=O)[C@@H](NC(=O)[C@H](Cc1ccccc1)NC(=O)[C@@H](NC(=O)CNC(=O)[C@H](CCC(=O)O)NC(=O)[C@@H](C)NC(=O)[C@@H](N)Cc1ccc(O)cc1)[C@@H](C)O)[C@@H](C)CC)C(=O)N[C@@H](CC(C)C)C(=O)N[C@@H](CC(C)C)C(=O)N[C@@H](CC(=O)O)C(=O)N[C@@H](CCCCN)C(=O)N[C@@H](CCCCNC(=O)COCCOCCNC(=O)COCCOCCNC(=O)CC[C@H](NC(=O)CCCCCCCCCCCCCCCCC(=O)O)C(=O)O)C(=O)N[C@@H](C)C(=O)N[C@@H](CCC(N)=O)C(=O)NC(C)(C)C(=O)N[C@@H](CC(=O)O)C(=O)N[C@@H](Cc1ccccc1)C(=O)N[C@H](C(=O)N[C@@H](CC(N)=O)C(=O)N[C@@H](Cc1c[nH]c2ccccc12)C(=O)N[C@@H](CC(C)C)C(=O)N[C@@H](CC(C)C)C(=O)N[C@@H](C)C(=O)N[C@@H](CCC(N)=O)C(=O)NCC(=O)N1CCC[C@H]1C(=O)N[C@@H](CO)C(=O)N[C@@H](CO)C(=O)NCC(=O)N[C@@H](C)C(=O)N1CCC[C@H]1C(=O)N1CCC[C@H]1C(=O)N1CCC[C@H]1C(=O)N[C@@H](CO)C(N)=O)C(C)C` [Example 2], the EC50 in assay [1] is greater than 5000 nM; in assay [2], 608 nM; in assay [3] it was 0.0123 nM.
With `CC[C@H](C)[C@H](NC(=O)[C@H](Cc1ccccc1)NC(=O)[C@@H](NC(=O)CNC(=O)[C@H](CCC(=O)O)NC(=O)C(C)(C)NC(=O)[C@@H](N)Cc1ccc(O)cc1)[C@@H](C)O)C(=O)N[C@@H](CO)C(=O)N[C@@H](CC(=O)O)C(=O)N[C@@H](Cc1ccc(O)cc1)C(=O)N[C@@H](CO)C(=O)N[C@H](C(=O)N[C@@](C)(CC(C)C)C(=O)N[C@@H](CC(C)C)C(=O)N[C@@H](CC(=O)O)C(=O)N[C@@H](CCCCN)C(=O)N[C@@H](CCCCNC(=O)COCCOCCNC(=O)COCCOCCNC(=O)CC[C@H](NC(=O)CCCCCCCCCCCCCCCCCCC(=O)O)C(=O)O)C(=O)N[C@@H](Cc1c[nH]cn1)C(=O)N[C@@H](CCC(N)=O)C(=O)NC(C)(C)C(=O)N[C@@H](CC(=O)O)C(=O)N[C@@H](Cc1ccccc1)C(=O)N[C@H](C(=O)N[C@@H](CCC(=O)O)C(=O)N[C@@H](Cc1ccncc1)C(=O)N[C@@H](CC(C)C)C(=O)N[C@@H](CC(C)C)C(=O)N[C@@H](CCC(=O)O)C(=O)N[C@@H](C)C(=O)NCC(=O)N1CCC[C@H]1C(=O)N[C@@H](CO)C(=O)N[C@@H](CO)C(=O)NCC(=O)N[C@@H](C)C(=O)N1CCC[C@H]1C(=O)N1CCC[C@H]1C(=O)N1CCC[C@H]1C(=O)N[C@@H](CO)C(N)=O)C(C)C)[C@@H](C)CC` [Example 3], the values for the EC50 in assay [1], in assay [2] and in assay [3] were greater than 5000 nM, 1250 nM and 0.0178 nM, respectively.
For `CC[C@H](C)[C@H](NC(=O)[C@H](Cc1ccccc1)NC(=O)[C@@H](NC(=O)CNC(=O)[C@H](CCC(=O)O)NC(=O)C(C)(C)NC(=O)[C@@H](N)Cc1ccc(O)cc1)[C@@H](C)O)C(=O)N[C@@H](CO)C(=O)N[C@@H](CC(=O)O)C(=O)N[C@@H](Cc1ccc(O)cc1)C(=O)N[C@@H](CO)C(=O)N[C@H](C(=O)N[C@@](C)(CC(C)C)C(=O)N[C@@H](CC(C)C)C(=O)N[C@@H](CC(=O)O)C(=O)N[C@@H](CCCN)C(=O)N[C@@H](CCCCNC(=O)COCCOCCNC(=O)COCCOCCNC(=O)CC[C@H](NC(=O)CCCCCCCCCCCCCCCCCCC(=O)O)C(=O)O)C(=O)N[C@@H](Cc1c[nH]cn1)C(=O)N[C@@H](CCC(N)=O)C(=O)NC(C)(C)C(=O)N[C@@H](CC(=O)O)C(=O)N[C@@H](Cc1ccccc1)C(=O)N[C@H](C(=O)N[C@@H](CCC(=O)O)C(=O)N[C@@H](Cc1ccncc1)C(=O)N[C@@H](CC(C)C)C(=O)N[C@@H](CC(C)C)C(=O)N[C@@H](CCC(=O)O)C(=O)N[C@@H](C)C(=O)NCC(=O)N1CCC[C@H]1C(=O)N[C@@H](CO)C(=O)N[C@@H](CO)C(=O)NCC(=O)N[C@@H](C)C(=O)N1CCC[C@H]1C(=O)N1CCC[C@H]1C(=O)N1CCC[C@H]1C(=O)N[C@@H](CO)C(N)=O)C(C)C)[C@@H](C)CC` [Example 4], in that order: greater than 5000 nM, 1690 nM and 0.0182 nM.
As to `CC[C@H](C)[C@H](NC(=O)[C@H](CCCCN)NC(=O)[C@H](CC(=O)O)NC(=O)[C@H](CC(C)C)NC(=O)[C@](C)(CC(C)C)NC(=O)[C@@H](NC(=O)[C@H](CO)NC(=O)[C@H](Cc1ccc(O)cc1)NC(=O)[C@H](CC(=O)O)NC(=O)[C@H](CO)NC(=O)[C@@H](NC(=O)[C@H](Cc1ccccc1)NC(=O)[C@@H](NC(=O)CNC(=O)[C@H](CCC(=O)O)NC(=O)C(C)(C)NC(=O)[C@@H](N)Cc1ccc(O)cc1)[C@@H](C)O)[C@@H](C)CC)[C@@H](C)CC)C(=O)N[C@@H](Cc1c[nH]cn1)C(=O)N[C@@H](CCC(N)=O)C(=O)NC(C)(C)C(=O)N[C@@H](CC(=O)O)C(=O)N[C@@H](Cc1ccccc1)C(=O)N[C@H](C(=O)N[C@@H](CCC(=O)O)C(=O)N[C@@H](Cc1ccc(O)cc1)C(=O)N[C@@H](CCCCNC(=O)COCCOCCNC(=O)COCCOCCNC(=O)CC[C@H](NC(=O)CCCCCCCCCCCCCCCCCCC(=O)O)C(=O)O)C(=O)N[C@@H](CC(C)C)C(=O)N[C@@H](CCC(=O)O)C(=O)NCC(=O)NCC(=O)N1CCC[C@H]1C(=O)N[C@@H](CO)C(=O)N[C@@H](CO)C(=O)NCC(=O)N[C@@H](C)C(=O)N1CCC[C@H]1C(=O)N1CCC[C@H]1C(=O)N1CCC[C@H]1C(=O)N[C@@H](CO)C(N)=O)C(C)C` [Example 5], the EC50 was greater than 5000 nM in assay [1], greater than 5000 nM in assay [2] and 0.0148 nM in assay [3].

The values above are taken from patent US12723063B2, “GIPR-agonist compounds” (Eli Lilly and Company, priority 2019, dated 2026).
